Laboratory results from ChEMBL document CHEMBL3885861, “Open TG-GATES”.

Organism: Rattus norvegicus
Test: Open TG-GATES - Regimen: Single
Format: toxicity, organism-based, Sprague-Dawley
Design: regimen Single, gender Male, age 6 weeks
Conditions: in vivo, po, 100 mg/kg, route gavage, dose level High; for APTT / Bas / Eos / Fbg / Ht / Lym / MCH / MCHC / MCV / Mono / Neu / PT / Plat / RBC / Ret / WBC: tissue Blood; for KIDNEY_L / KIDNEY_R / KIDNEY_TOTAL: tissue Kidney; for LIVER: tissue Liver; for ALP / ALT / AST / BUN / CRE / Ca / Cl / DBIL / GLC / IP / K / LDH / Na / PL / RALB / TBIL / TC / TG / TP / gamma-GTP: tissue Plasma

## Cc1cccc(Nc2cc(Cl)nc(SCC(=O)O)n2)c1C [PIRINIXIC ACID]
3 h
  TERMINAL_BW: 203.1 g
  APTT: 16 s
  Bas: 0%
  Eos: 0.8%
  Fbg: 246.6 mg/dL
  Ht: 38.5%
  Lym: 76.8%
  MCH: 21.8 pg
  MCHC: 34.4%
  MCV: 63.3 fL
  Mono: 3%
  Neu: 18.2%
  PT: 12.6 s
  Plat: 113.6 x10_4/uL
  RBC: 607.8 x10_4/ul
  Ret: 7.7%
  WBC: 82.7 x10_2/uL
  KIDNEY_L: 0.9 g
  KIDNEY_R: 0.8 g
  KIDNEY_TOTAL: 1.7 g
  LIVER: 8.8 g
  ALP: 1788.2 IU/L
  ALT: 54.6 IU/L
  AST: 82.6 IU/L
  BUN: 11 mg/dL
  CRE: 0.2 mg/dL
  Ca: 11 mg/dL
  Cl: 102.2 meq/L
  DBIL: 0.046 mg/dL
  GLC: 179.8 mg/dL
  IP: 10.4 mg/dL
  K: 4 meq/L
  LDH: 69.8 IU/L
  Na: 139.2 meq/L
  PL: 156.6 mg/dL
  RALB: 2.5 g/dL
  TBIL: 0.058 mg/dL
  TC: 80.8 mg/dL
  TG: 120.2 mg/dL
  TP: 5.4 g/dL
  gamma-GTP: 1 IU/L
6 h
  TERMINAL_BW: 202.6 g
  APTT: 16 s
  Bas: 0%
  Eos: 0.6%
  Fbg: 267.4 mg/dL
  Ht: 39.4%
  Lym: 74%
  MCH: 21.5 pg
  MCHC: 34.3%
  MCV: 62.6 fL
  Mono: 2.4%
  Neu: 22.2%
  PT: 12.1 s
  Plat: 116.2 x10_4/uL
  RBC: 628.6 x10_4/ul
  Ret: 7.5%
  WBC: 72.4 x10_2/uL
  KIDNEY_L: 0.9 g
  KIDNEY_R: 0.9 g
  KIDNEY_TOTAL: 1.7 g
  LIVER: 7.8 g
  ALP: 1738.4 IU/L
  ALT: 52 IU/L
  AST: 81.4 IU/L
  BUN: 9.4 mg/dL
  CRE: 0.2 mg/dL
  Ca: 10.6 mg/dL
  Cl: 104.6 meq/L
  DBIL: 0.036 mg/dL
  GLC: 178.6 mg/dL
  IP: 10.9 mg/dL
  K: 4.3 meq/L
  LDH: 54.6 IU/L
  Na: 139.4 meq/L
  PL: 152.4 mg/dL
  RALB: 2.5 g/dL
  TBIL: 0.052 mg/dL
  TC: 80.4 mg/dL
  TG: 105.4 mg/dL
  TP: 5.3 g/dL
  gamma-GTP: 1.6 IU/L
9 h
  TERMINAL_BW: 203.7 g
  APTT: 16.5 s
  Bas: 0%
  Eos: 0.4%
  Fbg: 248 mg/dL
  Ht: 40%
  Lym: 79.6%
  MCH: 21.8 pg
  MCHC: 34.3%
  MCV: 63.6 fL
  Mono: 1.8%
  Neu: 17.8%
  PT: 12.4 s
  Plat: 109.8 x10_4/uL
  RBC: 628.8 x10_4/ul
  Ret: 8.1%
  WBC: 76 x10_2/uL
  KIDNEY_L: 0.9 g
  KIDNEY_R: 0.9 g
  KIDNEY_TOTAL: 1.8 g
  LIVER: 7.8 g
  ALP: 2137.8 IU/L
  ALT: 46 IU/L
  AST: 74.2 IU/L
  BUN: 9.6 mg/dL
  CRE: 0.2 mg/dL
  Ca: 10.5 mg/dL
  Cl: 104.4 meq/L
  DBIL: 0.028 mg/dL
  GLC: 192 mg/dL
  IP: 11 mg/dL
  K: 4 meq/L
  LDH: 58.8 IU/L
  Na: 140.8 meq/L
  PL: 115.2 mg/dL
  RALB: 2.6 g/dL
  TBIL: 0.04 mg/dL
  TC: 59.4 mg/dL
  TG: 85.2 mg/dL
  TP: 5.4 g/dL
  gamma-GTP: 1.2 IU/L
24 h
  TERMINAL_BW: 210.5 g
  APTT: 16.2 s
  Bas: 0%
  Eos: 1%
  Fbg: 206.8 mg/dL
  Ht: 38.4%
  Lym: 76%
  MCH: 21.8 pg
  MCHC: 34.5%
  MCV: 63.3 fL
  Mono: 2.6%
  Neu: 20.2%
  PT: 13.1 s
  Plat: 109.5 x10_4/uL
  RBC: 607 x10_4/ul
  Ret: 7.2%
  WBC: 74.1 x10_2/uL
  KIDNEY_L: 0.9 g
  KIDNEY_R: 1 g
  KIDNEY_TOTAL: 1.9 g
  LIVER: 10.5 g
  ALP: 1720.8 IU/L
  ALT: 53.4 IU/L
  AST: 77.4 IU/L
  BUN: 14.2 mg/dL
  CRE: 0.2 mg/dL
  Ca: 10.7 mg/dL
  Cl: 104.2 meq/L
  DBIL: 0.018 mg/dL
  GLC: 195.4 mg/dL
  IP: 8.6 mg/dL
  K: 4 meq/L
  LDH: 60.4 IU/L
  Na: 142.2 meq/L
  PL: 96.4 mg/dL
  RALB: 2.6 g/dL
  TBIL: 0.026 mg/dL
  TC: 50.2 mg/dL
  TG: 31.4 mg/dL
  TP: 5.2 g/dL
  gamma-GTP: 1.2 IU/L
